Measured values taken from the supplement of paper PMC10733146.

Experiments:
Assay in all cases: viability relative to DMSO control (fraction); higher = less drug effect (more viable cells)
Conditions in all cases: 48 h
[1] = tested on: primary ALL patient cells (S088)
Summary of the method: (§1)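 Cells were incubated for 48 h at 37 °C and 5% CO2 in RPMI-1640 with penicillin/streptomycin, L-glutamine and human serum, at 4 × 10^4 cells per well in 384-well plates with compounds pre-plated at five concentrations, one well each. These were primary mononuclear tumour cells, fresh or cryopreserved, Ficoll-isolated from blood or bone marrow or obtained from processed lymph node. Viability values are CellTiter-Glo luminescence relative to the median of 16 inner DMSO wells.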

[2] = tested on: primary AML patient cells (S006)
Summary of the method: as §1

[3] = tested on: primary AML patient cells (S007)
Summary of the method: as §1

[4] = tested on: primary AML patient cells (S009)
Summary of the method: as §1

[5] = tested on: primary AML patient cells (S011)
Summary of the method: as §1

[6] = tested on: primary AML patient cells (S021)
Summary of the method: as §1

[7] = tested on: primary AML patient cells (S055)
Summary of the method: as §1

[8] = tested on: primary AML patient cells (S060)
Summary of the method: as §1

[9] = tested on: primary AML patient cells (S081)
Summary of the method: as §1

[10] = tested on: primary B-PLL patient cells (S016)
Summary of the method: as §1

[11] = tested on: primary DLBCL patient cells (S049)
Summary of the method: as §1

[12] = tested on: primary DLBCL patient cells (S076)
Summary of the method: as §1

[13] = tested on: primary DLBCL patient cells (S082)
Summary of the method: as §1

[14] = tested on: primary FL patient cells (S087)
Summary of the method: as §1

[15] = tested on: primary MCL patient cells (S041)
Summary of the method: as §1

[16] = tested on: primary MCL patient cells (S063)
Summary of the method: as §1

[17] = tested on: primary T-NHL patient cells (S058)
Summary of the method: as §1

[18] = tested on: primary T-PLL patient cells (S008)
Summary of the method: as §1

In the case of `Nc1cccc2c1CN(C1CCC(=O)NC1=O)C2=O` (stereo not given) [Lenalidomide], the viability ([1]; 0.008 µM) is reported as 1.07, the viability ([1]; 0.04 µM) is reported as 1.05 and the viability ([1]; 0.2 µM) is reported as 0.976. The viability ([1]; 1 µM) was 0.933, the viability ([1]; 5 µM) was 0.904 and the viability ([2]; 0.008 µM) was 0.847. It also gave a viability ([2]; 0.04 µM) of 0.602, a viability ([2]; 0.2 µM) of 0.463 and a viability ([2]; 1 µM) of 0.633. For the same compound, the viability ([2]; 5 µM) was 0.372, the viability ([3]; 0.008 µM) was 0.801 and the viability ([3]; 0.04 µM) was 0.386. For the same compound, the viability ([3]; 0.2 µM) was 0.204, the viability ([3]; 1 µM) was 0.188 and the viability ([3]; 5 µM) was 0.152. For the same compound, the viability ([4]; 0.008 µM) was 0.927, the viability ([4]; 0.04 µM) was 0.871 and the viability ([4]; 0.2 µM) was 0.817. The viability ([4]; 1 µM) was 0.723, the viability ([4]; 5 µM) was 0.786 and the viability ([5]; 0.008 µM) was 0.811. For the same compound, the viability ([5]; 0.04 µM) was 0.644, the viability ([5]; 0.2 µM) was 0.488 and the viability ([5]; 1 µM) was 0.496. For the same compound, the viability ([5]; 5 µM) was 0.461, the viability ([6]; 0.008 µM) was 0.897 and the viability ([6]; 0.04 µM) was 0.688. The viability ([6]; 0.2 µM) was 0.617, the viability ([6]; 1 µM) was 0.614 and the viability ([6]; 5 µM) was 0.556. The viability ([7]; 0.008 µM) was 1.01, the viability ([7]; 0.04 µM) was 0.945 and the viability ([7]; 0.2 µM) was 0.916. For the same compound, the viability ([7]; 1 µM) was 0.943, the viability ([7]; 5 µM) was 0.928 and the viability ([8]; 0.008 µM) was 1.02. For the same compound, the viability ([8]; 0.04 µM) was 0.973, the viability ([8]; 0.2 µM) was 0.992 and the viability ([8]; 1 µM) was 1. It also gave a viability ([8]; 5 µM) of 1.01, a viability ([9]; 0.008 µM) of 1.03 and a viability ([9]; 0.04 µM) of 1.06. The viability ([9]; 0.2 µM) was 0.999, the viability ([9]; 1 µM) was 1.05 and the viability ([9]; 5 µM) was 1. It also gave a viability ([10]; 0.008 µM) of 1.1, a viability ([10]; 0.04 µM) of 1.05 and a viability ([10]; 0.2 µM) of 0.883. It also gave a viability ([10]; 1 µM) of 0.819, a viability ([10]; 5 µM) of 0.719 and a viability ([11]; 0.008 µM) of 0.962. It also gave a viability ([11]; 0.04 µM) of 1.09, a viability ([11]; 0.2 µM) of 0.905 and a viability ([11]; 1 µM) of 0.943. The viability ([11]; 5 µM) was 0.974, the viability ([12]; 0.008 µM) was 0.847 and the viability ([12]; 0.04 µM) was 1.11. It also gave a viability ([12]; 0.2 µM) of 0.749, a viability ([12]; 1 µM) of 0.992 and a viability ([12]; 5 µM) of 1.06. It also gave a viability ([13]; 0.008 µM) of 1.1, a viability ([13]; 0.04 µM) of 1.07 and a viability ([13]; 0.2 µM) of 1.08. For the same compound, the viability ([13]; 1 µM) was 1.14, the viability ([13]; 5 µM) was 1.1 and the viability ([14]; 0.008 µM) was 1. The viability ([14]; 0.04 µM) was 0.963, the viability ([14]; 0.2 µM) was 0.926 and the viability ([14]; 1 µM) was 0.956. The viability ([14]; 5 µM) was 0.87, the viability ([15]; 0.008 µM) was 1.01 and the viability ([15]; 0.04 µM) was 0.929. It also gave a viability ([15]; 0.2 µM) of 0.888, a viability ([15]; 1 µM) of 0.953 and a viability ([15]; 5 µM) of 0.863. For the same compound, the viability ([16]; 0.008 µM) was 1.14, the viability ([16]; 0.04 µM) was 1.09 and the viability ([16]; 0.2 µM) was 1.08. For the same compound, the viability ([16]; 1 µM) was 1.11, the viability ([16]; 5 µM) was 1.11 and the viability ([17]; 0.008 µM) was 0.915. It also gave a viability ([17]; 0.04 µM) of 1.17, a viability ([17]; 0.2 µM) of 0.862 and a viability ([17]; 1 µM) of 1.14. The viability ([17]; 5 µM) was 0.91, the viability ([18]; 0.008 µM) was 0.988 and the viability ([18]; 0.04 µM) was 0.995. For the same compound, the viability ([18]; 0.2 µM) was 0.907, the viability ([18]; 1 µM) was 0.836 and the viability ([18]; 5 µM) was 0.798.
